The values that follow come from patent publication US8399674B2, “Quinolines” (Hoffman-La Roche Inc., priority 2007, dated 2013).

The target in the assay is T1, recombinant human 5-HT5A receptor (Homo sapiens, UniProt P47898).
T1 construct: expressed in transfected cells; host or cells: HEK-EBNA (Human Embryonic Kidney-EBNA) cells, transient transfection; membranes
The experiment in a line: [3H]LSD radioligand binding assay, membranes of HEK-EBNA cells transiently expressing the receptor. The note with it: [3H]LSD approx. 1 nM, 120 min room temperature, Ki from IC50 by Cheng-Prussoff equation, read-out: Ki (affinity towards the human 5-HT5A receptor). The procedure: A [^3H] LSD radioligand binding assay was used to determine the affinity of the compounds for the recombinant human 5-HT5A receptor, in membranes from transiently (cDNA) expressed 5-HT5A receptors in Human Embryonic Kidney-EBNA (HEK-EBNA) cells.
Assay buffer consisted of Tris (50 mM) buffer containing 1 mM EGTA, 10 mM MgCl2 (pH 7.4) and 10 μM pargyline. The binding assay was carried out in 96-well-plates in the presence of [^3H]LSD (approximately 1 nM), approximately 2 μg/well of membrane protein, and 0.5 mg of Ysi-poly-1-lysine SPA beads in a final volume of 200 μl of buffer. Non-specific binding was defined using methiothepin 2 μM. Compounds were tested at 10 concentrations. All assays were conducted in duplicate and repeated at least two times. Assay plates were incubated for 120 min at room temperature before centrifugation. Bound ligand was determined using a Packard Topcount scintillation counter. IC50 values were calculated using a non-linear curve fitting program and Ki values calculated using the Cheng-Prussoff equation.

T1 sequence (P47898 whole entry): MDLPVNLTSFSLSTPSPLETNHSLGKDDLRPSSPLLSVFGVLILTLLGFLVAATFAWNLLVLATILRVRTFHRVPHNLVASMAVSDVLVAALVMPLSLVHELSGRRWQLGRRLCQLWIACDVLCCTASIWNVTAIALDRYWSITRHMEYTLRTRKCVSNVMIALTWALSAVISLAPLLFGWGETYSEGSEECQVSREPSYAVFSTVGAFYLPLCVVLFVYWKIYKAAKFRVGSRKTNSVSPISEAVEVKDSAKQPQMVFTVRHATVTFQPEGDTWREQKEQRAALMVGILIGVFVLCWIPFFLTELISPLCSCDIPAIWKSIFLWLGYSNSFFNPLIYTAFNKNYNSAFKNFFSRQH

Consider `c1ccc(OCCNc2ccc3cc(NCc4cccnc4)ccc3n2)cc1` [Example 1, N2-(2-Phenoxy-ethyl)-N6-pyridin-3-ylmethyl-quinoline-2,6-diamine], for which the Ki (as a rule, the equilibrium dissociation constant of an inhibitor or competing ligand from its target) was 22 nM. In the case of `COc1ccccc1CNc1ccc2cc(CCc3ccccc3)ccc2n1` [Example 4, (2-Methoxy-benzyl)-(6-phenethyl-quinolin-2-yl)-amine], the Ki turned out to be 104 nM. The same measure for `COc1ccccc1CNc1ccc2cc(NCc3cccnc3)ccc2n1` [Example 6, N2-(2-Methoxy-benzyl)-N6-pyridin-3-ylmethyl-quinoline-2,6-diamine]: 27 nM. With `c1ccc(OCCNc2ccc3cc(NCc4ccncc4)ccc3n2)cc1` [Example 7, N2-(2-Phenoxy-ethyl)-N6-pyridin-4-ylmethyl-quinoline-2,6-diamine] the figure was 101 nM; with `COc1ccccc1CNc1ccc2cc(NCc3ccccc3)ccc2n1` [Example 8, N6-Benzyl-N2-(2-methoxy-benzyl)-quinoline-2,6-diamine], 22 nM; with `COc1ccccc1CNc1ccc2nc(NCCOc3ccccc3)ccc2c1` [Example 9, N6-(2-Methoxy-benzyl)-N2-(2-phenoxy-ethyl)-quinoline-2,6-diamine], 26 nM. With `COc1cccc(CNc2ccc3nc(NCCOc4ccccc4)ccc3c2)c1` [Example 10, N6-(3-Methoxy-benzyl)-N2-(2-phenoxy-ethyl)-quinoline-2,6-diamine] the figure was 42 nM; with `COc1ccccc1CNc1cc(-c2ccccc2)c2cc(NCc3cccnc3)ccc2n1` [Example 13, N2-(2-Methoxy-benzyl)-4-phenyl-N6-pyridin-3-ylmethyl-quinoline-2,6-diamine], 11 nM; with `COc1ccccc1CNc1ccc2cc(/C=C/c3cccnc3)ccc2n1` [Example 14, (2-Methoxy-benzyl)-[6-((E)-2-pyridin-3-yl-vinyl)-quinolin-2-yl]-amine], 60 nM. Regarding `COc1ccccc1CNc1ccc2nc(NCc3ccccc3OC)ccc2c1` [Example 15, N2,N6-Bis-(2-methoxy-benzyl)-quinoline-2,6-diamine], the Ki turned out to be 17 nM. With `COc1cccc(CNc2ccc3nc(NCc4ccccc4OC)ccc3c2)c1` [Example 16, N6-(3-Methoxy-benzyl)-N2-(2-methoxy-benzyl)-quinoline-2,6-diamine], the Ki was determined as 17 nM. With `COc1ccccc1CNc1ccc2cc(NCc3ccccc3OC(F)(F)F)ccc2n1` [Example 17, N2-(2-Methoxy-benzyl)-N6-(2-trifluoromethoxy-benzyl)-quinoline-2,6-diamine] the figure was 25 nM; with `COc1ccccc1CNc1ccc2cc(CCc3cccnc3)ccc2n1` [Example 18, (2-Methoxy-benzyl)-[6-(2-pyridin-3-yl-ethyl)-quinolin-2-yl]-amine], 87 nM; with `COc1cccc(CNc2ccc3nc(NCc4ccccc4OC)cc(-c4ccccc4)c3c2)c1` [Example 19, N6-(3-Methoxy-benzyl)-N2-(2-methoxy-benzyl)-4-phenyl-quinoline-2,6-diamine], 22 nM. As for `COc1ccccc1CNc1ccc2nc(NCc3ccccc3OC)cc(-c3ccccc3)c2c1` [Example 20, N2,N6-Bis-(2-methoxy-benzyl)-4-phenyl-quinoline-2,6-diamine], the Ki turned out to be 30 nM. The same measure for `COc1ccccc1CNc1ccc2cc(NCCCn3ccnc3)ccc2n1` [Example 23, N6-(3-Imidazol-1-yl-propyl)-N2-(2-methoxy-benzyl)-quinoline-2,6-diamine]: 129 nM. Regarding `Cc1ccc(CNc2ccc3cc(NCc4cccnc4)ccc3n2)o1` [Example 25, N2-(5-Methyl-furan-2-ylmethyl)-N6-pyridin-3-ylmethyl-quinoline-2,6-diamine], the Ki was determined as 22 nM.

For the compound `COc1ccccc1CNc1ccc2nc(NCc3ccc(C)o3)ccc2c1` [Example 27, N6-(2-Methoxy-benzyl)-N2-(5-methyl-furan-2-ylmethyl)-quinoline-2,6-diamine], the Ki amounted to 30 nM.

`COc1cccc(CNc2ccc3nc(NCc4ccc(C)o4)ccc3c2)c1` [Example 28, N6-(3-Methoxy-benzyl)-N2-(5-methyl-furan-2-ylmethyl)-quinoline-2,6-diamine]: the Ki came out at 44 nM.

As to `Cc1ccc(CNc2ccc3cc(NCc4ccccc4)ccc3n2)o1` [Example 29, N6-Benzyl-N2-(5-methyl-furan-2-ylmethyl)-quinoline-2,6-diamine], the Ki is 32 nM. With `COc1cc(F)ccc1CNc1cc(-c2ccccc2)c2cc(NCc3cccnc3)ccc2n1` [Example 31, N-2-(4-Fluoro-2-methoxy-benzyl)-4-phenyl-N-6-pyridin-3-ylmethyl-quinoline-2,6-diamine], the Ki is 17 nM. Take `COc1ccccc1CNc1cc(-c2ccccc2C)c2cc(NCc3cccnc3)ccc2n1` [Example 32, N2-(2-Methoxy-benzyl)-N6-pyridin-3-ylmethyl-4-o-tolyl-quinoline-2,6-diamine]: the Ki is 12 nM. Consider `COc1cccc(-c2cc(NCc3ccccc3OC)nc3ccc(NCc4cccnc4)cc23)c1` [Example 33, N-2-(2-Methoxy-benzyl)-4-(3-methoxy-phenyl)-N-6-pyridin-3-ylmethyl-quinoline-2,6-diamine], for which the Ki stood at 50 nM.

`COc1ccccc1CNc1cc(-c2cc(F)ccc2F)c2cc(NCc3cccnc3)ccc2n1` [Example 35, 4-(2,5-Difluoro-phenyl)-N2-(2-methoxy-benzyl)-N6-pyridin-3-ylmethyl-quinoline-2,6-diamine]: the Ki amounted to 22 nM. Regarding `COc1cc(F)ccc1CNc1cc(-c2ccccc2)c2cc(NCc3ccccc3)ccc2n1` [Example 36, N-6-Benzyl-N-2-(4-fluoro-2-methoxy-benzyl)-4-phenyl-quinoline-2,6-diamine], the Ki was 42 nM. With `COc1cc(F)ccc1CNc1cc(-c2ccccc2)c2cc(NCc3ccncc3)ccc2n1` [Example 37, N-2-(4-Fluoro-2-methoxy-benzyl)-4-phenyl-N-6-&-pyridin-4-ylmethyl-quinoline-2,6-diamine] the figure was 40 nM. With `COc1cc(F)ccc1CNc1cc(-c2ccccc2C)c2cc(NCc3ccccc3)ccc2n1` [Example 38, N-6-2-Benzyl-N-2-(4-fluoro-2-methoxy-benzyl)-4-o-tolyl-quinoline-2,6-diamine] the figure was 41 nM; with `COCCNc1cc(NCc2ccc(F)cc2OC)nc2ccc(NCc3ccccc3)cc12` [Example 42, N6-Benzyl-N2-(4-fluoro-2-methoxy-benzyl)-N4-(2-methoxy-ethyl)-quinoline-2,4,6-triamine], 169 nM. With `COc1ccccc1CNc1ccc2cc(COc3ccccc3)ccc2n1` [Example 43, (2-Methoxy-benzyl)-(6-phenoxymethyl-quinolin-2-yl)-amine] the figure was 73 nM; with `COc1cc(F)ccc1CNc1cc(N)c2cc(NCc3ccccc3)ccc2n1` [Example 44, N6-Benzyl-N2-(4-fluoro-2-methoxy-benzyl)-quinoline-2,4,6-triamine], 40 nM. As for `COc1ccccc1CNc1cc(N)c2cc(NCc3ccccc3)ccc2n1` [Example 47, N6-Benzyl-N2-(2-methoxy-benzyl)-quinoline-2,4,6-triamine], the Ki stood at 30 nM. With `Cc1ccc(CNc2ccc3cc(CNc4cccnc4)ccc3n2)o1` [Example 49, (5-Methyl-furan-2-ylmethyl)-[6-(pyridin-3-ylaminomethyl)-quinolin-2-yl]-amine] the figure was 128 nM; with `COc1ccccc1CNc1cc(N)c2cc(NCc3cccnc3)ccc2n1` [Example 51, N2-(2-Methoxy-benzyl)-N6-pyridin-3-ylmethyl-quinoline-2,4,6-triamine], 15 nM. As for `Cc1ccc(CNc2cc(N)c3cc(NCc4cccnc4)ccc3n2)o1` [Example 54, N2-(5-Methyl-furan-2-ylmethyl)-N6-pyridin-3-ylmethyl-quinoline-2,4,6-triamine], the Ki was 22 nM.

In the case of `Cc1ccc(CNc2cc(N)c3cc(NCc4ccccc4)ccc3n2)o1` [Example 55, N6-Benzyl-N2-(5-methyl-furan-2-ylmethyl)-quinoline-2,4,6-triamine], the Ki stood at 22 nM. With `COc1cccc(CNc2ccc3cc(NCc4cccnc4)ccc3n2)c1` [Example 57, N2-(3-Methoxy-benzyl)-N6-pyridin-3-ylmethyl-quinoline-2,6-diamine] the figure was 37 nM; with `c1cncc(CNc2ccc3nc(NCc4cccc5c4OCO5)ccc3c2)c1` [Example 73, N2-Benzo[1,3]dioxol-4-ylmethyl-N6-pyridin-3-ylmethyl-quinoline-2,6-diamine], 27 nM; with `COc1ccc(NC(=O)Nc2ccc3nc(NCc4ccccc4OC)ccc3c2)cc1` [Example 79, 1-[2-(2-Methoxy-benzylamino)-quinolin-6-yl]-3-(4-methoxy-phenyl)-urea], 30 nM. The same measure for `COc1ccc(OC(=O)Nc2ccc3nc(NCc4ccccc4OC)ccc3c2)cc1` [Example 80, [2-(2-Methoxy-benzylamino)-quinolin-6-yl]-carbamic acid 4-methoxy-phenyl ester]: 87 nM. The same measure for `COc1ccccc1CNc1ccc2cc(NS(=O)(=O)Nc3ccc(F)cc3)ccc2n1` [Example 81, N-(4-fluorophenyl)-N′-{2-[(2-methoxybenzyl)amino]quinolin-6-yl}sulfamide]: 40 nM.
